Test results as given in patent publication US20250049929A1, “NOVEL TETRAHYDROQUINOLINES AND PROTEOLYSIS TARGETING CHIMERA (PROTACS) COMPRISING THEM AS DEGRADERS OF SMARCA” (Boehringer Ingelheim International GmbH, priority 2021, published 2025).
Where two headings read alike, the source gives them in different places.

Assays:
SMARCA2BD = target: T1, SMARCA2BD (Homo sapiens, UniProt P51531); experiment: Binary SMARCA2 binding affinity determination (A2 binary): SMARCA2 SPR binding experiments
T1 construct: the SMARCA2BD prepared at 0.5-0.7 mg/mL in coupling buffer
T1 sequence (P51531 1373-1493 isoform P51531-2 limits assumed): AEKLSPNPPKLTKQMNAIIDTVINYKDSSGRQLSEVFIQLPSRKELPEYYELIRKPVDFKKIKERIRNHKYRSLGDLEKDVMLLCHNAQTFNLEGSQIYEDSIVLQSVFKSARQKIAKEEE
Procedure: Binary SMARCA2 Binding Affinity Determination (A2 Binary [nM]):
SMARCA2 SPR Binding Experiments
SPR experiments were performed on Biacore 8K or T200 instruments (GE Healthcare). Immobilization of target protein was carried out at 25° C. on a CM5 chip using amine coupling (EDC/NHS, GE Healthcare) in HBS-P+ running buffer, containing 2 mM TCEP, pH 7.4. […] The surface was deactivated using 1 M ethanolamine.
All interaction experiments were performed at 6° C. in running buffer containing 20 mM TRIS, 150 mM potassium chloride, 2 mM magnesium chloride, 2 mM TCEP, 0.005% TWEEN 20, 1% dimethyl sulfoxide; pH 8.3. Sensorgrams from reference surfaces and blank injections were subtracted from the raw data prior to data analysis using Biacore T200 or Biacore 8K evaluation software. Sensorgrams recorded at different compound concentrations in multi-cycle experiments were fitted using a 1:1 interaction model, with a term for mass-transport included.

SMARCA2 = target: T2, SMARCA2 (Homo sapiens, UniProt P51531); experiment: SMARCA2 degradation analysis by imaging in RKO cells (DC50 A2); assay type: cell-based; conditions: tables 69, 70, 73, 76-78
T2 construct: endogenous in cells; host or cells: RKO cells (CRL-2577, ATCC)
T2 sequence (P51531 whole entry): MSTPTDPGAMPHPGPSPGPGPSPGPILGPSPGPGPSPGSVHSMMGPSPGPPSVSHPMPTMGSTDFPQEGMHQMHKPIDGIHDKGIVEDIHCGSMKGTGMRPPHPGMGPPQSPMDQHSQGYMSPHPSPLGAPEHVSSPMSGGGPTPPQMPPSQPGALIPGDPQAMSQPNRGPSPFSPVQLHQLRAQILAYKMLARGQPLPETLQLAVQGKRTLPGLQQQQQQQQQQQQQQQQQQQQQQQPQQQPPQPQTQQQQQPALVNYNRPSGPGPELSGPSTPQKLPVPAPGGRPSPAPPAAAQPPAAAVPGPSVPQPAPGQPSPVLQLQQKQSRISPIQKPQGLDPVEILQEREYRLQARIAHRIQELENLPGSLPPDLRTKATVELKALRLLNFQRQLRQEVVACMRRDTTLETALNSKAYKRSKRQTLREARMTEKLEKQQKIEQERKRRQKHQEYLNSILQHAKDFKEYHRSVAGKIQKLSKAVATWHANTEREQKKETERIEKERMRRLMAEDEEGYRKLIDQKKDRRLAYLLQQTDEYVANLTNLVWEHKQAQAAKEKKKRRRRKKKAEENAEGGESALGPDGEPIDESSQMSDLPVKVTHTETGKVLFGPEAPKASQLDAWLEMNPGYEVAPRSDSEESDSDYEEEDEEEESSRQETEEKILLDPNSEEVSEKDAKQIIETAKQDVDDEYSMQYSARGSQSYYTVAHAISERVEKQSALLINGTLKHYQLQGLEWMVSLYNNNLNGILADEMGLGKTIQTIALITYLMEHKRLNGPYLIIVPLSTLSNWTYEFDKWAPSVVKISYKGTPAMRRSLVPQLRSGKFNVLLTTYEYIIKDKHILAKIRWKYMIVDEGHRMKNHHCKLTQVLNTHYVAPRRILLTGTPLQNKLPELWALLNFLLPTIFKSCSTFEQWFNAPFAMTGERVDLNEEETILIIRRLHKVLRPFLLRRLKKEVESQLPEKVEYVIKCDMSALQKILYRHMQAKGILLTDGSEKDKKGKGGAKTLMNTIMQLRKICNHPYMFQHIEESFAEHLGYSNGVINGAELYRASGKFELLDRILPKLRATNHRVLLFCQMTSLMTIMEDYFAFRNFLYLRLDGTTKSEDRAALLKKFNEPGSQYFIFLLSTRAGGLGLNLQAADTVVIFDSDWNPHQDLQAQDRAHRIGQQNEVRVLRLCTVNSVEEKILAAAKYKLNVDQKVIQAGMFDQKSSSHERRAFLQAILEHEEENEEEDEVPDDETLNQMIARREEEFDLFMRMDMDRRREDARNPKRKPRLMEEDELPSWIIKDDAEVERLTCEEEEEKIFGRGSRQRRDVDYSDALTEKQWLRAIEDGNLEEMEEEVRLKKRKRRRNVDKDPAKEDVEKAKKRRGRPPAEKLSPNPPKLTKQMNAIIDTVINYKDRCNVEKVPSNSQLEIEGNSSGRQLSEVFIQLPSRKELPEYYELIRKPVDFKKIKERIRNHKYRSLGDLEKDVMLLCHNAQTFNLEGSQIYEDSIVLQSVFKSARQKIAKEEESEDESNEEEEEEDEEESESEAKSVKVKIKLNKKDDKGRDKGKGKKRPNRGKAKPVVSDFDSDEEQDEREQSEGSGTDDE
Procedure: (§1) Determination of SMARCA2 and SMARCA4 Degradation (DC50 A2 and A4 [nM])
(§2) Protein Degradation Assays for SMARCA2 and SMARCA4
(§3) For degradation analysis by imaging, 1250 RKO cells (CRL-2577, ATCC) per well were seeded into 60 μL DMEM (Sigma Aldrich) supplemented with 10% FBS (Hyclone) in 384-well flat bottom plates (CellCarrier Ultra, Perkin Elmer) and incubated at 37° C. and 5% CO2 in a humidified atmosphere overnight. Compounds were added the next day using an Access Labcyte Workstation with a Labcyte Echo 550 or 555 acoustic dispenser and incubated with the cells for 4 or 24 h. Cells were fixed by adding 25 μL fixation buffer (7.4% formaldehyde (Sigma Aldrich F8775), 0.2% Triton TX100 (Sigma Aldrich F93443) in PBS) for 15 minutes at room temperature. After aspirating the fixing solution, the cells were washed once with 25 μL PBS and 25 μL of Blocking Buffer (10% Goat Serum in PBS) were added to each well and incubated for 30 minutes. Cells were washed with PBS and incubated with 20 μL mouse anti-Smarca4 (BRG1) antibody (Cell Signaling #52251) or rabbit anti-Smarca2 (BRM) antibody (Sigma Aldrich HPA029981) in blocking solution (PBS with 10% FCS) for ca. 2-4 h at RT. For detection of the nuclei, 25 μL of 5 μg/mL Hoechst 33342 (stock 10 mg/mL in H2O; Invitrogen H1399) were added together with Alexa Fluor 647 goat anti-mouse IgG (Invitrogen A-21235) or Alexa Fluor 488 goat anti-rabbit IgG (Invitrogen A-11034) in blocking solution and incubated for 60 min at RT. The cell layer was washed with 25 μL PBS, the wells were filled with 25 μL PBS and the plates sealed with an adhesive sheet. The mean intensity at 488 or 647 nm in the nucleus was measured using an Opera Phenix Plus High-Content Screening System (Perkin Elmer), values were normalized to the background and DMSO control and DC50 values were calculated and analyzed using a four-parametric logistic model.

SMARCA4 = target: T3, SMARCA4 (Homo sapiens, UniProt P51532); experiment: SMARCA4 degradation analysis by imaging in RKO cells (DC50 A4); assay type: cell-based; conditions: tables 69, 70, 73, 76-78
T3 construct: endogenous in cells; host or cells: RKO cells (CRL-2577, ATCC)
T3 sequence (P51532 whole entry): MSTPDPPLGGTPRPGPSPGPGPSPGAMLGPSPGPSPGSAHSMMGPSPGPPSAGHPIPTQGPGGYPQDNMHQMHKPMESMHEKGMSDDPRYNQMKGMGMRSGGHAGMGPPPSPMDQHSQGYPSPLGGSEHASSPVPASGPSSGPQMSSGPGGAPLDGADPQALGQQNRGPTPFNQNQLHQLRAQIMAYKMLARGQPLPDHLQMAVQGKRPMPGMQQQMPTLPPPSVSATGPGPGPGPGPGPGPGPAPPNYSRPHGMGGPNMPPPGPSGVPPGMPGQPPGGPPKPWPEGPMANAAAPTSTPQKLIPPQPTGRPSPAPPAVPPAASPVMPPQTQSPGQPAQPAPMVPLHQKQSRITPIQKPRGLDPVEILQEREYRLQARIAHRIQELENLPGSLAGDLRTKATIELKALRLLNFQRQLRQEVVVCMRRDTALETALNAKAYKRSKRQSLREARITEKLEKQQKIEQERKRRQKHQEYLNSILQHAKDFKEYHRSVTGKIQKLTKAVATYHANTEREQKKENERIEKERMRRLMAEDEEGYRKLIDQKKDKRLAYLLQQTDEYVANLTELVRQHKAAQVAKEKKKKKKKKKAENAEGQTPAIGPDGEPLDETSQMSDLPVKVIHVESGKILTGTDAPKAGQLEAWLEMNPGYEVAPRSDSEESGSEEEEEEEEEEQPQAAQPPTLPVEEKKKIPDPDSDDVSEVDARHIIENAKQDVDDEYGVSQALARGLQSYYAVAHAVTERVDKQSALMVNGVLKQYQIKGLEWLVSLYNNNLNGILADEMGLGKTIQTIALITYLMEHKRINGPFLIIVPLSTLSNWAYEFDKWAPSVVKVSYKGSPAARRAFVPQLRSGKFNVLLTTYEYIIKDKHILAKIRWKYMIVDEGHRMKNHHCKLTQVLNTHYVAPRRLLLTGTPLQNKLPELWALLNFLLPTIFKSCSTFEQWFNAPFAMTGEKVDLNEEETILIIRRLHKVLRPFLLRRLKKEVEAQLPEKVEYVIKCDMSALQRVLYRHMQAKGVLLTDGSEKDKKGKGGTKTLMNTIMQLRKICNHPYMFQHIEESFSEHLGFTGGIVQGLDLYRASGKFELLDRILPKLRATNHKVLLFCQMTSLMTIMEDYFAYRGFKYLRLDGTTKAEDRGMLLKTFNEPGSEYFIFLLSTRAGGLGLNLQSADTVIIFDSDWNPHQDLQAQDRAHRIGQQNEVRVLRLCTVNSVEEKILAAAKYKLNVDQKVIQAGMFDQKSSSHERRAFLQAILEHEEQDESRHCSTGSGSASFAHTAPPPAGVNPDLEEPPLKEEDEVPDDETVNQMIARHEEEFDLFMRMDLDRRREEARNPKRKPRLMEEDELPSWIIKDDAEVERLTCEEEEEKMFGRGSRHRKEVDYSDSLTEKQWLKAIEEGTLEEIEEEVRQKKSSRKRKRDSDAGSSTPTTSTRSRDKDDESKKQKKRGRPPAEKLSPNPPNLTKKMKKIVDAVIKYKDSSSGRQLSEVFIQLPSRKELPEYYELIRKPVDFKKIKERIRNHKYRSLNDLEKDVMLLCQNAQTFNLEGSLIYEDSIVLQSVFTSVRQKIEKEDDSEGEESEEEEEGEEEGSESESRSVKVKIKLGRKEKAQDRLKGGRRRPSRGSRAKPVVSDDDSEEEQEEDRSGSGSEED
Procedure: as §1, §2, §3

[1] = binary SMARCA2 binding affinity, SPR at 6° C., pH 8.3, read-out: A2 binary

| Kd (SMARCA2BD; [1]) | DC50 (SMARCA2) | DC50 (SMARCA4) | SMILES | Kd (SMARCA2BD) |
| --- | --- | --- | --- | --- |
| – | – | – | O=c1nc2n(C3CCCC3)c3cc(C4CCNCC4)ccc3n2c2cccc(Br)c12 [Compound 28a, 4-bromo-7-cyclopentyl-9-(4-piperidyl)benzimidazolo[1,2-a]quinazolin-5-one] | 48 nM |
| 45 nM | – | – | CCn1c2cc(C3CCNCC3)c(OCCOCCOC)cc2n2c3cccc(Br)c3c(=O)nc12 [Compound 28k] | – |
| 29 nM | – | – | N[C@H]1CC[C@H](c2ccc3c(c2)n(C2CCCC2)c2nc(=O)c4c(Br)cccc4n32)CC1 [Compound 28m] | – |
| 40 nM | – | – | C[C@H]1CNCCN1c1ccc2c(c1)n(C1CCCC1)c1nc(=O)c3c(Br)cccc3n21 [Compound 28o] | – |
| 55 nM | – | – | C[C@@H]1CNCCN1c1ccc2c(c1)n(C1CCCC1)c1nc(=O)c3c(Br)cccc3n21 [Compound 28p] | – |
| 44 nM | – | – | O=c1nc2n(C3CCCC3)c3cc(N4CCNCC4)ccc3n2c2cccc(Br)c12 [Compound 28r] | – |
| 70 nM | – | – | O=c1nc2n(C3CCCC3)c3cc(N4C[C@@H]5C[C@H]4CN5)ccc3n2c2cccc(Br)c12 [Compound 28s] | – |
| 45 nM | – | – | O=c1nc2n(C3CCCC3)c3cc(C4CCNCC4)c(OC[C@@H]4CCCO4)cc3n2c2cccc(Br)c12 [Compound 28v] | – |
| 50 nM | – | – | COCCOCCOc1cc2c(cc1C1CCNCC1)n(C1CCCC1)c1nc(=O)c3c(Br)cccc3n21 [Compound 28y] | – |
| 541 nM | – | – | CC(C)(C)OC(=O)N1CCC(c2ccc3c(c2)n(C2CCCC2)c2nc(=O)c4c(N)cccc4n32)CC1 [Compound 30a] | – |
| 157 nM | – | – | CC(C)(C)OC(=O)Oc1cc2c(cc1C1CCN(C(=O)OC(C)(C)C)CC1)n(C1CCCC1)c1nc(=O)c3c(Br)cccc3n21 [Compound 33a] | – |
| – | 9 nM | 24 nM | Cc1ncsc1-c1ccc([C@H](COC(C)(C)CN2CCCN(c3ccc4c(c3)n(C3CCCC3)c3nc(=O)c5c(Br)cccc5n43)CC2)NC(=O)[C@@H]2C[C@@H](O)CN2C(=O)[C@@H](NC(=O)C2(F)CC2)C(C)(C)C)cc1 [Compound 42i] | – |
| – | 4 nM | > 833 nM | CCC(C)(C)[C@H](NC(=O)C1(F)CC1)C(=O)N1C[C@H](O)C[C@H]1C(=O)N[C@@H](COC(C)(C)CN1CCN(c2ccc3c(c2)n(C2CCCC2)c2nc(=O)c4c(Br)cccc4n32)CC1)c1ccc(-c2scnc2C)cc1 [Compound 42j] | – |
| – | 3 nM | > 833 nM | Cc1ncsc1-c1ccc([C@H](COC(C)(C)CN2CCC(c3ccc4c(c3)n(C3CCCC3)c3nc(=O)c5c(Br)cccc5n43)CC2)NC(=O)[C@@H]2C[C@@H](O)CN2C(=O)[C@@H](NC(=O)C2(F)CC2)C(C)(C)C)cc1 [Compound 42l] | – |
| – | 4 nM | > 833 nM | Cc1ncsc1-c1ccc([C@H](CO[C@H](C)CN2CCC(c3ccc4c(c3)n(C3CCCC3)c3nc(=O)c5c(Br)cccc5n43)CC2)NC(=O)[C@@H]2C[C@@H](O)CN2C(=O)[C@@H](NC(=O)C2(F)CC2)C(C)(C)C)cc1 [Compound 42m] | – |
| – | 3 nM | 800 nM | Cc1ncsc1-c1ccc([C@H](COC(C)(C)CN2CCC(c3ccc4c(c3)n(C3CCCC3)c3nc(=O)c5c(Br)cccc5n43)CC2)NC(=O)[C@@H]2C[C@@H](O)CN2C(=O)[C@@H](NC(=O)C2(F)CC2)C2(C)CCCC2)cc1 [Compound 42n] | – |
| – | 5 nM | 90 nM | Cc1ncsc1-c1ccc([C@H](COCCN2CCC(c3ccc4c(c3)n(C3CCCC3)c3nc(=O)c5c(Br)cccc5n43)CC2)NC(=O)[C@@H]2C[C@@H](O)CN2C(=O)[C@@H](NC(=O)C2(F)CC2)C(C)(C)C)cc1 [Compound 42o] | – |
| – | 13 nM | > 833 nM | Cc1ncsc1-c1ccc([C@H](CO[C@H](C)CN2CCC(c3ccc4c(c3)n(C3C[C@H](C)[C@@H](C)C3)c3nc(=O)c5c(Br)cccc5n43)CC2)NC(=O)[C@@H]2C[C@@H](O)CN2C(=O)[C@@H](NC(=O)C2(F)CC2)C(C)(C)C)cc1 [Compound 42p] | – |
| – | 0.4 nM | 1 nM | Cc1ncsc1-c1ccc([C@H](CCCN2CCC(c3ccc4c(c3)n(C3CCCC3)c3nc(=O)c5c(Br)cccc5n43)CC2)NC(=O)[C@@H]2C[C@@H](O)CN2C(=O)[C@@H](NC(=O)C2(F)CC2)C(C)(C)C)cc1 [Compound 42q] | – |
| – | 2 nM | 27 nM | Cc1ncsc1-c1ccc([C@H](CO[C@H](C)CN2CCC(c3ccc4c(c3)n(C3CCCC3)c3nc(=O)c5c(Cl)cccc5n43)CC2)NC(=O)[C@@H]2C[C@@H](O)CN2C(=O)[C@@H](NC(=O)C2(F)CC2)C23CC4CC(CC(C4)C2)C3)cc1 [Compound 42r] | – |
| – | 0.7 nM | 8 nM | Cc1ncsc1-c1ccc([C@H](COCCCCCN2CCC(c3ccc4c(c3)n(C3CCCC3)c3nc(=O)c5c(Br)cccc5n43)CC2)NC(=O)[C@@H]2C[C@@H](O)CN2C(=O)[C@@H](NC(=O)C2(F)CC2)C(C)(C)C)cc1 [Compound 42s] | – |
| – | 3 nM | 67 nM | Cc1ncsc1-c1ccc([C@H](COCCN2CCC(c3cc4c(cc3OC[C@@H]3CCCO3)n3c5cccc(Br)c5c(=O)nc3n4C3CCCC3)CC2)NC(=O)[C@@H]2C[C@@H](O)CN2C(=O)[C@@H](NC(=O)C2(F)CC2)C(C)(C)C)cc1 [Compound 42t] | – |
| – | 0.3 nM | 0.7 nM | Cc1ncsc1-c1ccc([C@H](C[C@@H](C)CN2CCC(c3ccc4c(c3)n(C3CCCC3)c3nc(=O)c5c(Br)cccc5n43)CC2)NC(=O)[C@@H]2C[C@@H](O)CN2C(=O)[C@@H](NC(=O)C2(F)CC2)C(C)(C)C)cc1 [Compound 42u] | – |
| – | 11 nM | > 833 nM | Cc1ncsc1-c1ccc([C@H](CO[C@@H](CN2CCC(c3ccc4c(c3)n(C3CCCC3)c3nc(=O)c5c(Br)cccc5n43)CC2)C2CC2)NC(=O)[C@@H]2C[C@@H](O)CN2C(=O)[C@@H](NC(=O)C2(F)CC2)C(C)(C)C)cc1 [Compound 42v] | – |
| – | 11 nM | 36 nM | CCOC(=O)c1ncsc1-c1ccc([C@H](CCCN2CCC(c3ccc4c(c3)n(C3CCCC3)c3nc(=O)c5c(Br)cccc5n43)CC2)NC(=O)[C@@H]2C[C@@H](O)CN2C(=O)[C@@H](NC(=O)C2(F)CC2)C(C)(C)C)cc1 [Compound 42w] | – |
| – | 0.3 nM | 2 nM | Cc1ncsc1-c1ccc([C@H](CCCN2CCC(c3ccc4c(c3)n(C3CCCC3)c3nc(=O)c5c(N)cccc5n43)CC2)NC(=O)[C@@H]2C[C@@H](O)CN2C(=O)[C@@H](NC(=O)C2(F)CC2)C(C)(C)C)cc1 [Compound 42x] | – |
| – | 6 nM | 101 nM | Cc1ncsc1-c1ccc([C@H](CO[C@H](C)CN2CCC(c3ccc4c(c3)n(C3CCCC3)c3nc(=O)c5c(Br)cccc5n43)CC2)NC(=O)[C@@H]2C[C@@H](O)CN2C(=O)[C@@H](NC(=O)C2(N(C)C)CC2)C(C)(C)C)cc1 [Compound 42y] | – |
| – | 20 nM | 41 nM | Cc1ncsc1-c1ccc([C@H](CCCN2CCC(c3cc4c(cc3OCCOCCN3CCOCC3)n3c5cccc(Br)c5c(=O)nc3n4C3CCCC3)CC2)NC(=O)[C@@H]2C[C@@H](O)CN2C(=O)[C@@H](NC(=O)C2(F)CC2)C(C)(C)C)cc1 [Compound 42z] | – |
